Patent EP3685668B1, “COMPOSITION COMPRISING ACIBENZOLAR-S-METHYL AS EFFECTIVE INGREDIENT FOR CONTROLLING BURSAPHELENCHUS XYLOPHILUS DISEASE AND METHOD FOR CONTROLLING BURSAPHELENCHUS XYLOPHILUS USING SAME” (Industry Foundation of Chonnam National University, priority 2017, dated 2019)

How the values were obtained:
[1] = test system: induced resistance-related genes; assay: qRT-PCR expression of induced resistance genes in pine tree callus, overall statement; type: cell-based; settings: 200 µg/mℓ
Protocol: For in vitro analysis of induced resistance, the expression of PR genes and other plant defense-related genes was determined, which are evolved in various defense mechanisms including induced resistance. The primers of sixteen induced resistance-related genes of pine tree used in this invention were listed in the below and elongation factor_1 alpha were used as a reference gene. [Table 4] The primer list of defense resistance-related genes
After the treatment with 200 µg / mℓ of candidates of the selected induced resistance material, expression of the induced resistance-related gene in pine callus was determined by qRT-PCR using the primer pairs of defense resistance-related genes in Table 4. As a candidate group of an induced resistance material in pine tree, acibenzolar-S-methyl (ASM), TDL (Tiadinil), ITL (Isotianil), PBZ (Probenzole), AZO (Azoxystrobin), VMA (Validamycin A), MeJA (Methyl jasmonate), BABA (DL-3-aminobutyric acid), 2,3-BDO (2,3-Butanediol), GABA (r-Aminobutyric acid), glucan (Glucan), ER (Ergosterol), and AZA (Azelaic acid) were used. For the in vitro analysis of the expression of induced resistance gene in pine callus, the selected induced resistance materials were applied with 500 µℓ of LM liquid medium on a surface of pine tree callus (100 mg) in 12-well microplate to give final concentration of 200 µg/mℓ. Then, the callus surface was sufficiently reacted for 24 hours with the candidate of pine tree induced resistance material by shaking at 50 rpm in a 25 °C shaking incubator under dark condition. RNAs were extracted from the callus after completion of the reaction with an induced resistance material, followed by synthesis of cDNAs. Then, by carrying out qRT-PCR, the expression of induced resistance genes was determined. [Table 5] Expression of induced resistance gene in pine tree callus by TDL, PBZ, ASM, ITL, AZO, VMA, glucan, and AZA

[2] = test system: Heat shock 70; assay: qRT-PCR expression of induced resistance gene in pine tree callus; type: cell-based; settings: concentration series, 2 µg/mℓ
[3] = test system: Xyloglucan; assay: as above; type: cell-based; settings: concentration series
[4] = test system: Bursaphelenchus xylophilus; assay: Control efficacy against pine wilt disease by trunk injection, foliar spraying or soil drenching, greenhouse, red pine trees; type: in vivo; settings: red pine tree, observed for 80 days
Protocol: The control efficacy of acibenzolar-S-methyl, which shown to have the highest activity in Example 1, was determined by three different treatment methods, i.e., trunk injection, foliar spraying, and soil drenching. For in vivo pathogenesis test, 2-year old young red pine trees (diameter of 5.5 mm or so, and height of about 35 mm) were used like Example 2.
For the trunk injection, a borehole was created at an angle of 45° by using an electric drill with thickness of 1.5 mm on a pine stem part that is 5 to 10 cm above the soil surface, a tip (200 µℓ) was inserted to the hole, and the working solution of chemicals was injected in an amount of 100 µℓ per pine tree after dissolving acibenzolar-S-methyl at concentration of 0.2 or 10 mg/mℓ in an aqueous solution containing 10% acetone and 10% methanol. After the treatment, the end part of the tip was sealed with parafilm, and a small hole was created thereon as an airflow hole. For the foliar spraying, a pre-treatment with Tween 20 (250 µg/mℓ) was carried out at 5 mℓ per pine tree to help the adsorption of the chemical on pine leaves, followed by drying for 2 hours. After drying, acibenzolar-S-methyl was dissolved at concentration of 1.6 mg/mℓ in an aqueous solution containing 10% acetone and Tween 20 (250 µg/mℓ) and the dissolved solution was filled in microsprayer and was applied 5 mℓ per pine tree by foliar spraying. For the soil drenching, acibenzolar-S-methyl was dissolved at concentration level of 0.2 mg/mℓ in an aqueous solution containing 10% acetone and Tween 20 (250 µg/mℓ), and this solution was used for soil drenching in a pot with planted pine tree, 40 mℓ per pine tree. […] [Table 3] The control efficacy of acibenzolar-S-methyl against pine wilt disease by various treatment methods

[5] = test system: PR_2 family; assay: qRT-PCR expression of induced resistance gene in pine tree callus; type: cell-based; settings: concentration series, 2 µg/mℓ
[6] = test system: Antipeptide; assay: as above; type: cell-based; settings: concentration series
[7] = test system: PR_3 family class 1; assay: as above; type: cell-based; settings: concentration series, 2 µg/mℓ
[8] = test system: Bursaphelenchus xylophilus; assay: In vitro nematicidal activity, 96-well microplate; settings: after 3 days
Protocol: To test the nematicidal activity of acibenzolar-S-methyl, a suspension of Bursaphelenchus xylophilus was diluted in a 96-well microplate to have 50 worms/99 µℓ in each well and used for the treatment. […] Each treatment was repeated 3 times, and "A Pharm" (emamectin benzoate, 2.15%), which is a chemical pesticide, was used as a control group. After the treatment, the 96-well plate was kept in a plastic box having water-soaked wipes spread on the bottom to maintain 100% humidity, and, after covering the box with black cloth, the box was stored in a dark state with blockage of light. The observation was made after 3 days. […] [Table 2] Nematicidal activity of acibenzolar-S-methyl against Bursaphelenchus xylophilus

[9] = test system: PR_1b family; assay: qRT-PCR expression of induced resistance gene in pine tree callus; type: cell-based; settings: concentration series
[10] = Foliar spraying, 1,600 µg/mℓ, 5 mℓ per tree
[11] = Soil drenching, 200 µg/mℓ, 40 mℓ per tree

OCC1=C[C@@H](N[C@H]2C[C@H](CO)[C@@H](O[C@H]3O[C@@H](CO)[C@H](O)[C@@H](O)[C@@H]3O)[C@H](O)[C@H]2O)[C@H](O)[C@@H](O)[C@@H]1O [VMA, Validamycin A]
expression of induced resistance-related genes is induced overall [1]: ≥ 2 times

NCCCC(=O)O [GABA, r-Aminobutyric acid]
expression of induced resistance-related genes is induced overall [1]: ≥ 2 times

CSC(=O)c1cccc2nnsc12 [ASM, acibenzolar-S-methyl]
Gene expression level, Heat shock 70 [2]: 22.47
Gene expression level, Xyloglucan ([3]; 2 µg/mℓ): 7.013
Gene expression level, Xyloglucan ([3]; 20 µg/mℓ): 5.389
Control value (%) [4, 10]: 61%
Disease occurrence rate (%) [4, 10]: 28%
Control value (%) [4, 11]: 97%
Disease occurrence rate (%) [4, 11]: 2%
Control value (%) ([4]; Trunk injection, 200 µg/mℓ): 77%
Disease occurrence rate (%) ([4]; Trunk injection, 200 µg/mℓ): 16%
Control value (%) ([4]; Trunk injection, 10,000 µg/mℓ): 27%
Disease occurrence rate (%) ([4]; Trunk injection, 10,000 µg/mℓ): 52%
Gene expression level, PR_2 family [5]: 1.828
Gene expression level, Antipeptide ([6]; 2 µg/mℓ): 5.816
Gene expression level, Antipeptide ([6]; 20 µg/mℓ): 7.111
Gene expression level, PR_3 family class 1 [7]: 3.945
expression of induced resistance-related genes is induced overall [1]: ≥ 2 times
expression of most PR genes was enhanced [1]: ≥ 2 times
Nematicidal rate (%) ([8]; 33.3 µg/mℓ): 1.72%
Nematicidal rate (%) ([8]; 100 µg/mℓ): 1.94%
Nematicidal rate (%) ([8]; 300 µg/mℓ): 2.24%
nematicidal activity ([8]; second stage larvae, 300, 100 or 33.3 µg/mℓ): no nematicidal activity
Gene expression level, PR_1b family ([9]; 2 µg/mℓ): 1.064
Gene expression level, PR_1b family ([9]; 20 µg/mℓ): 1.248
